{"source": "patent US20200060276A1", "about": "“THIAZOLE COMPOUND AND HERBICIDE” (OAT Agrio Co., Ltd., priority 2017, published 2020)", "type_in_all_cases": "in vivo", "key": {"Monochoria vaginalis": {"tested_on": "Monochoria vaginalis", "assay": "Test for Herbicidal Effect in Flooding Treatment (#1), MONVA", "conditions": "flooding treatment at seeding, dose 2 kg/ha, visual observation on day 21", "method_in_brief": "(§1)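 Flooded soil in cups was seeded 24 h after flooding, then treated with compound in acetone diluted with Tween 80-containing water, dropped onto the water surface at 2 kg/ha. After growth in a glasshouse, growth inhibition was scored visually on day 21 on a 0 (<10%) to 5 (≥90% or complete withering) scale.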"}, "Cyperus microiria": {"tested_on": "Cyperus microiria", "assay": "Test for Herbicidal Effect in Flooding Treatment (#1), CYMIC", "conditions": "flooding treatment at seeding, dose 2 kg/ha, visual observation on day 21", "method_in_brief": "as §1"}, "Scirpus juncoides": {"tested_on": "Scirpus juncoides", "assay": "Test for Herbicidal Effect in Flooding Treatment (#1), SCIJU", "conditions": "flooding treatment at seeding, dose 2 kg/ha, visual observation on day 21", "method_in_brief": "as §1"}, "[1]": {"tested_on": "Echinochloa crus-galli (L.) P. Beauv. var. formosensis Ohwi", "assay": "Test for Herbicidal Effect in Flooding Treatment (#1), ECHDG", "conditions": "flooding treatment at seeding, dose 2 kg/ha, visual observation on day 21", "method_in_brief": "as §1"}, "[2]": {"tested_on": "Echinochloa crus-galli (L.) P. Beauv. var. formosensis Ohwi", "assay": "Test for Herbicidal Effect in Flooding Treatment (#2), ECHDG at 2-2.5 leaf stage", "conditions": "flooding treatment at 2-2.5 leaf stage, dose 0.2 kg/ha, visual observation on day 21", "method_in_brief": "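Flooded muddy soil was seeded with the weed, and at 2–2.5 leaf stage compound in acetone/Tween 80 water was dropped on the water surface at 0.2 kg/ha. Plants were kept in a glasshouse and scored visually on day 21 from 0 (<10% growth inhibition) to 5 (≥90% or complete withering).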"}}}
{"smiles": "CCOc1c(Cl)cc(Cl)cc1CS(=O)(=O)c1ncc(Cl)s1", "note": "[Compound 1C-23]", "values": [{"measurement": "MONVA #1 herbicidal effect (growth inhibition grade)", "setting": "Monochoria vaginalis", "value": "5 (Growth inhibition effect is equal to or greater than 90%, or complete withering is achieved)"}, {"measurement": "CYMIC #1 herbicidal effect (growth inhibition grade)", "setting": "Cyperus microiria", "value": "5 (Growth inhibition effect is equal to or greater than 90%, or complete withering is achieved)"}, {"measurement": "SCIJU #1 herbicidal effect (growth inhibition grade)", "setting": "Scirpus juncoides", "value": "5 (Growth inhibition effect is equal to or greater than 90%, or complete withering is achieved)"}, {"measurement": "ECHDG #1 herbicidal effect (growth inhibition grade)", "setting": "[1]", "value": "5 (Growth inhibition effect is equal to or greater than 90%, or complete withering is achieved)"}, {"measurement": "ECHDG (2-2.5L) #2 herbicidal effect (growth inhibition grade)", "setting": "[2]", "value": "3 (Growth inhibition effect equal to or greater than 50%, and less than 70%)"}]}
{"smiles": "CCOc1c(C)cc(F)cc1CS(=O)(=O)c1ncc(Cl)s1", "note": "[Compound 1C-25]", "values": [{"measurement": "MONVA #1 herbicidal effect (growth inhibition grade)", "setting": "Monochoria vaginalis", "value": "5 (Growth inhibition effect is equal to or greater than 90%, or complete withering is achieved)"}, {"measurement": "CYMIC #1 herbicidal effect (growth inhibition grade)", "setting": "Cyperus microiria", "value": "5 (Growth inhibition effect is equal to or greater than 90%, or complete withering is achieved)"}, {"measurement": "SCIJU #1 herbicidal effect (growth inhibition grade)", "setting": "Scirpus juncoides", "value": "5 (Growth inhibition effect is equal to or greater than 90%, or complete withering is achieved)"}, {"measurement": "ECHDG #1 herbicidal effect (growth inhibition grade)", "setting": "[1]", "value": "5 (Growth inhibition effect is equal to or greater than 90%, or complete withering is achieved)"}, {"measurement": "ECHDG (2-2.5L) #2 herbicidal effect (growth inhibition grade)", "setting": "[2]", "value": "5 (Growth inhibition effect is equal to or greater than 90%, or complete withering is achieved)"}]}
{"smiles": "CCOc1c(C)cc(Cl)cc1CS(=O)(=O)c1ncc(Cl)s1", "note": "[Compound 1C-26]", "values": [{"measurement": "MONVA #1 herbicidal effect (growth inhibition grade)", "setting": "Monochoria vaginalis", "value": "5 (Growth inhibition effect is equal to or greater than 90%, or complete withering is achieved)"}, {"measurement": "CYMIC #1 herbicidal effect (growth inhibition grade)", "setting": "Cyperus microiria", "value": "5 (Growth inhibition effect is equal to or greater than 90%, or complete withering is achieved)"}, {"measurement": "SCIJU #1 herbicidal effect (growth inhibition grade)", "setting": "Scirpus juncoides", "value": "5 (Growth inhibition effect is equal to or greater than 90%, or complete withering is achieved)"}, {"measurement": "ECHDG #1 herbicidal effect (growth inhibition grade)", "setting": "[1]", "value": "5 (Growth inhibition effect is equal to or greater than 90%, or complete withering is achieved)"}, {"measurement": "ECHDG (2-2.5L) #2 herbicidal effect (growth inhibition grade)", "setting": "[2]", "value": "5 (Growth inhibition effect is equal to or greater than 90%, or complete withering is achieved)"}]}
{"smiles": "CCOc1c(F)ccc(F)c1CS(=O)(=O)c1ncc(Cl)s1", "note": "[Compound 1C-27]", "values": [{"measurement": "MONVA #1 herbicidal effect (growth inhibition grade)", "setting": "Monochoria vaginalis", "value": "5 (Growth inhibition effect is equal to or greater than 90%, or complete withering is achieved)"}, {"measurement": "CYMIC #1 herbicidal effect (growth inhibition grade)", "setting": "Cyperus microiria", "value": "5 (Growth inhibition effect is equal to or greater than 90%, or complete withering is achieved)"}, {"measurement": "SCIJU #1 herbicidal effect (growth inhibition grade)", "setting": "Scirpus juncoides", "value": "5 (Growth inhibition effect is equal to or greater than 90%, or complete withering is achieved)"}, {"measurement": "ECHDG #1 herbicidal effect (growth inhibition grade)", "setting": "[1]", "value": "5 (Growth inhibition effect is equal to or greater than 90%, or complete withering is achieved)"}, {"measurement": "ECHDG (2-2.5L) #2 herbicidal effect (growth inhibition grade)", "setting": "[2]", "value": "5 (Growth inhibition effect is equal to or greater than 90%, or complete withering is achieved)"}]}
{"smiles": "CCOc1c(C)ccc(C)c1CS(=O)(=O)c1ncc(Cl)s1", "note": "[Compound 1C-28]", "values": [{"measurement": "MONVA #1 herbicidal effect (growth inhibition grade)", "setting": "Monochoria vaginalis", "value": "5 (Growth inhibition effect is equal to or greater than 90%, or complete withering is achieved)"}, {"measurement": "CYMIC #1 herbicidal effect (growth inhibition grade)", "setting": "Cyperus microiria", "value": "5 (Growth inhibition effect is equal to or greater than 90%, or complete withering is achieved)"}, {"measurement": "SCIJU #1 herbicidal effect (growth inhibition grade)", "setting": "Scirpus juncoides", "value": "5 (Growth inhibition effect is equal to or greater than 90%, or complete withering is achieved)"}, {"measurement": "ECHDG #1 herbicidal effect (growth inhibition grade)", "setting": "[1]", "value": "5 (Growth inhibition effect is equal to or greater than 90%, or complete withering is achieved)"}, {"measurement": "ECHDG (2-2.5L) #2 herbicidal effect (growth inhibition grade)", "setting": "[2]", "value": "5 (Growth inhibition effect is equal to or greater than 90%, or complete withering is achieved)"}]}
{"smiles": "CCOc1cc(C)c(Cl)cc1CS(=O)(=O)c1ncc(Cl)s1", "note": "[Compound 1C-30]", "values": [{"measurement": "MONVA #1 herbicidal effect (growth inhibition grade)", "setting": "Monochoria vaginalis", "value": "5 (Growth inhibition effect is equal to or greater than 90%, or complete withering is achieved)"}, {"measurement": "CYMIC #1 herbicidal effect (growth inhibition grade)", "setting": "Cyperus microiria", "value": "5 (Growth inhibition effect is equal to or greater than 90%, or complete withering is achieved)"}, {"measurement": "SCIJU #1 herbicidal effect (growth inhibition grade)", "setting": "Scirpus juncoides", "value": "5 (Growth inhibition effect is equal to or greater than 90%, or complete withering is achieved)"}, {"measurement": "ECHDG #1 herbicidal effect (growth inhibition grade)", "setting": "[1]", "value": "5 (Growth inhibition effect is equal to or greater than 90%, or complete withering is achieved)"}, {"measurement": "ECHDG (2-2.5L) #2 herbicidal effect (growth inhibition grade)", "setting": "[2]", "value": "5 (Growth inhibition effect is equal to or greater than 90%, or complete withering is achieved)"}]}
{"smiles": "CCOc1cc(F)cc(F)c1CS(=O)(=O)c1ncc(Cl)s1", "note": "[Compound 1C-31]", "values": [{"measurement": "MONVA #1 herbicidal effect (growth inhibition grade)", "setting": "Monochoria vaginalis", "value": "5 (Growth inhibition effect is equal to or greater than 90%, or complete withering is achieved)"}, {"measurement": "CYMIC #1 herbicidal effect (growth inhibition grade)", "setting": "Cyperus microiria", "value": "5 (Growth inhibition effect is equal to or greater than 90%, or complete withering is achieved)"}, {"measurement": "SCIJU #1 herbicidal effect (growth inhibition grade)", "setting": "Scirpus juncoides", "value": "5 (Growth inhibition effect is equal to or greater than 90%, or complete withering is achieved)"}, {"measurement": "ECHDG #1 herbicidal effect (growth inhibition grade)", "setting": "[1]", "value": "5 (Growth inhibition effect is equal to or greater than 90%, or complete withering is achieved)"}, {"measurement": "ECHDG (2-2.5L) #2 herbicidal effect (growth inhibition grade)", "setting": "[2]", "value": "5 (Growth inhibition effect is equal to or greater than 90%, or complete withering is achieved)"}]}
{"smiles": "CCOc1cc(C)c(Cl)c(C)c1CS(=O)(=O)c1ncc(Cl)s1", "note": "[Compound 1C-35]", "values": [{"measurement": "MONVA #1 herbicidal effect (growth inhibition grade)", "setting": "Monochoria vaginalis", "value": "5 (Growth inhibition effect is equal to or greater than 90%, or complete withering is achieved)"}, {"measurement": "CYMIC #1 herbicidal effect (growth inhibition grade)", "setting": "Cyperus microiria", "value": "5 (Growth inhibition effect is equal to or greater than 90%, or complete withering is achieved)"}, {"measurement": "SCIJU #1 herbicidal effect (growth inhibition grade)", "setting": "Scirpus juncoides", "value": "5 (Growth inhibition effect is equal to or greater than 90%, or complete withering is achieved)"}, {"measurement": "ECHDG #1 herbicidal effect (growth inhibition grade)", "setting": "[1]", "value": "5 (Growth inhibition effect is equal to or greater than 90%, or complete withering is achieved)"}, {"measurement": "ECHDG (2-2.5L) #2 herbicidal effect (growth inhibition grade)", "setting": "[2]", "value": "5 (Growth inhibition effect is equal to or greater than 90%, or complete withering is achieved)"}]}
{"smiles": "CC(C)Oc1ccccc1CS(=O)(=O)c1ncc(Cl)s1", "note": "[Compound 1C-36]", "values": [{"measurement": "MONVA #1 herbicidal effect (growth inhibition grade)", "setting": "Monochoria vaginalis", "value": "5 (Growth inhibition effect is equal to or greater than 90%, or complete withering is achieved)"}, {"measurement": "CYMIC #1 herbicidal effect (growth inhibition grade)", "setting": "Cyperus microiria", "value": "5 (Growth inhibition effect is equal to or greater than 90%, or complete withering is achieved)"}, {"measurement": "SCIJU #1 herbicidal effect (growth inhibition grade)", "setting": "Scirpus juncoides", "value": "5 (Growth inhibition effect is equal to or greater than 90%, or complete withering is achieved)"}, {"measurement": "ECHDG #1 herbicidal effect (growth inhibition grade)", "setting": "[1]", "value": "5 (Growth inhibition effect is equal to or greater than 90%, or complete withering is achieved)"}, {"measurement": "ECHDG (2-2.5L) #2 herbicidal effect (growth inhibition grade)", "setting": "[2]", "value": "4 (Growth inhibition effect is equal to or greater than 70%, and less than 90%)"}]}
{"smiles": "O=S(=O)(Cc1cc(Cl)ccc1OC(F)F)c1ncc(Cl)s1", "note": "[Compound 1C-39]", "values": [{"measurement": "MONVA #1 herbicidal effect (growth inhibition grade)", "setting": "Monochoria vaginalis", "value": "5 (Growth inhibition effect is equal to or greater than 90%, or complete withering is achieved)"}, {"measurement": "CYMIC #1 herbicidal effect (growth inhibition grade)", "setting": "Cyperus microiria", "value": "5 (Growth inhibition effect is equal to or greater than 90%, or complete withering is achieved)"}, {"measurement": "SCIJU #1 herbicidal effect (growth inhibition grade)", "setting": "Scirpus juncoides", "value": "5 (Growth inhibition effect is equal to or greater than 90%, or complete withering is achieved)"}, {"measurement": "ECHDG #1 herbicidal effect (growth inhibition grade)", "setting": "[1]", "value": "5 (Growth inhibition effect is equal to or greater than 90%, or complete withering is achieved)"}, {"measurement": "ECHDG (2-2.5L) #2 herbicidal effect (growth inhibition grade)", "setting": "[2]", "value": "5 (Growth inhibition effect is equal to or greater than 90%, or complete withering is achieved)"}]}
